What all share (type): in vivo
Experiment [1] concerns Comstock mealybug (Pseudococcus comstocki). In words: Test Example 2: same test as Test Example 1, different flonicamid concentration. The note with it: 168 h, first instar larvae, 7 days after application, read-out: Corrected mortality. From the text: (§1) A plastic cup (diameter 9 cm, height: 4 cm) filled with tap water was covered with a plastic lid (diameter 9 cm, with a hole having a diameter of 0.5 cm at its center portion), and an absorbent cotton sheet (diameter 9 cm) as shown in FIG. 1 was placed thereon. The cut portion of the absorbent cotton sheet was put into the plastic cup through the hole at the center portion of the lid and dipped in the tap water. Filter paper (diameter 9 cm) was placed on the absorbent cotton sheet, and a kidney bean primary leaf was further placed thereon so that the abaxial side faced upward. The kidney bean primary leaf was covered with filter paper (diameter 9 cm, with a hole having a diameter of 3 cm at its center portion) to prepare a leaf disk.
Thirty first instar larvae of Comstock mealybug (Pseudococcus comstocki) were released on the hole at the center portion of the leaf disk, and the leaf disk was left at rest in a breeding room (25° C., humidity: 60%). Two days later, the number of surviving larvae in the leaf disk was examined, and then a chemical solution at predetermined concentrations of active ingredients was sprayed on the leaf disc by a rotary spraying apparatus (tower sprayers TS-301) in an application amount corresponding to 100 L/10 a, and the leaf disk was left at rest in the breeding room. Seven days after application, the number of surviving larvae was examined, and the difference with the number of surviving larvae before application was taken as the mortality. The same test was conducted using tap water as a negative control, the corrected mortality (%) was calculated in accordance with the formula 1, and the results are shown in Table 1. Further, in accordance with the Colby's formula, the theoretical value (%) was calculated based on the obtained corrected mortality and shown in brackets in Table 1. The composition of the present invention has a synergistic pesticidal effect when the corrected mortality is higher than the theoretical value by the Colby's formula. The test was conducted three times. […]

Experiment [2] shares this test system. Kind of experiment: Test Example 3: same test as Test Example 1, different flonicamid and D-limonene concentrations. As to conditions: 168 h, first instar larvae, 7 days after application, read-out: Corrected mortality.
Description: as §1
(§2) Thirty first instar larvae of Comstock mealybug (Pseudococcus comstocki) were released on the hole at the center portion of the leaf disk, and the leaf disk was left at rest in a breeding room (25° C., humidity: 60%). Two days later, the number of surviving larvae in the leaf disk was examined, and then a chemical solution at predetermined concentrations of active ingredients was sprayed on the leaf disc by a rotary spraying apparatus (tower sprayers TS-301) in an application amount corresponding to 100 L/10 a, and the leaf disk was left at rest in the breeding room. Seven days after application, the number of surviving larvae was examined, and the difference with the number of surviving larvae before application was taken as the mortality. The same test was conducted using tap water as a negative control, the corrected mortality (%) was calculated in accordance with the formula 1, and the results are shown in Table 1. Further, in accordance with the Colby's formula, the theoretical value (%) was calculated based on the obtained corrected mortality and shown in brackets in Table 1. The composition of the present invention has a synergistic pesticidal effect when the corrected mortality is higher than the theoretical value by the Colby's formula. The test was conducted three times. Corrected mortality (%)=100×((morality in treated area−mortality in control area)/(100−mortality in control area)) Formula 1
The test was conducted in the same manner as in Test Example 1 except that the concentrations of flonicamid and D-limonene were different.

For experiment [3] the test system is unchanged. In words: Test Example 1: test on effects against Comstock mealybug, leaf disk spray. The note with it: foliar, 168 h, first instar larvae, 7 days after application, read-out: Corrected mortality.
Description: as §1, §2

For two compounds, mortality results are on record in patent US10952438B2, “Pesticidal composition and method for controlling pests” (ISHIHARA SANGYO KAISHA, LTD., priority 2017, dated 2021).

The mortality is the share of the test organisms that died.

For the compound `C=C(C)[C@H]1CC=C(C)CC1` [D-Limonene, (4R)-p-menth-1,8-diene], the mortality at 720 ppm amounted to 4.5% in experiment [1] (D-limonene 720 ppm alone) and 7.7% in experiment [3] (D-limonene 720 ppm alone). The mortality at 1440 ppm in experiment [1] (D-limonene 1440 ppm alone) amounted to 21.3%; in experiment [3] (D-limonene 1440 ppm alone), 27.7%. Also, in experiment [2] (D-limonene 180 ppm alone), the mortality at 180 ppm was 0%. In addition, the mortality at 360 ppm in experiment [2] (D-limonene 360 ppm alone) turned out to be 35.1%.

Turning to `N#CCNC(=O)c1cnccc1C(F)(F)F` [Flonicamid, N-cyanomethyl-4-trifluoromethyl-3-pyridinecarboxamide], the mortality at 160 ppm in experiment [1] (flonicamid 160 ppm alone) was determined as 68.8%; in experiment [2] (flonicamid 160 ppm alone), 55%. Further, in experiment [2] (flonicamid 80 ppm alone), the mortality at 80 ppm was found to be 25.5%. Moreover, the mortality at 10 ppm in experiment [3] (flonicamid 10 ppm alone) was 7.9%. Also, in experiment [3] (flonicamid 20 ppm alone), the mortality at 20 ppm came out at 16.1%.
